Results on one substance are retold here after US6503932B2, “Fungicidal mixtures based on amide compounds” (BASF Aktiengesellschaft, priority 2000, dated 2003).

One experiment has as its system Puccinia recondita. In words: Curative activity against Puccinia recondita on wheat (wheat leaf rust). Type of experiment: in vivo. Conditions: wheat 'Kanzler', 7 days. On the procedure:
(§1) The active compounds, separately or together, were formulated as a 10% strength emulsion in a mixture of 70% by weight of cyclohexanone, 20% by weight of Nekanil® LN (Lutensol® AP6, wetting agent having emulsifying and dispersing action based on ethoxylated alkylphenols) and 10% by weight of Emulphor® EL (Emulan® EL, emulsifier based on ethoxylated fatty alcohols) and correspondingly diluted with water to the desired concentration.
(§2) Evaluation was carried out by determining the infected leaf areas in percent. These percentages were converted into efficacies. The efficacy (W) was calculated as follows using Abbot's formula: […]
α corresponds to the fungal infection of the treated plants in % and β corresponds to the fungal infection of the untreated (control) plants in % An efficacy of 0 means that the infection level of the treated plants corresponds to that of the untreated control plants; an efficacy of 100 means that the treated plants were not infected.
The expected efficacies of the mixtures of the active compounds were determined using Colby's formula [R. S. Colby, Weeds 15, 20-22 (1967)] and compared with the observed efficacies.
Colby's formula: E=x+y−x·y/100
E expected efficacy, expressed in % of the untreated control, when using the mixture of the active compounds A and B at the concentrations a and b x efficacy, expressed in % of the untreated control, when using active compound A at a concentration of a y efficacy, expressed in % of the untreated control, when using active compound B at a concentration of b.
Leaves of potted wheat seedlings of the cultivar “Kanzler” were dusted with spores of leaf rust (Puccinia recondita). Thereafter, the pots were kept for 24 hours in a chamber of high atmospheric humidity (90 to 95%) and at 20-22° C. During this time, the spores germinated and the germinal tubes penetrated into the leaf tissue. […] Thereafter, the extent of the rust fungus development on the leaves was determined. […]

In experiment [1] the test system is mildew of wheat (Blumeria graminis forma specialis tritici). The experiment is described as follows: Activity against mildew of wheat (protective, potted wheat seedlings). It counts as in vivo. The settings on record: wheat 'Kanzler', 7 days. Here is the method:
as §1, §2
The expected efficacies of the mixtures of the active compounds were determined using Colby's formula [R. S. Colby, Weeds 15, 20-22 (1967)] and compared with the observed efficacies. […]
Leaves of potted wheat seedlings of the culivar “Kanzler” were sprayed to run off point with an aqueous preparation of active compound which had been prepared from a stock solution made of 10% of active compound, 85% of cyclohexanone and 5% of emulsifier and, 24 hours after the spray coating had dried on, dusted with spores of mildew of wheat (Blumeria graminis forma specialis tritici). […] After 7 days, the extent of the mildew development was determined visually in % infection of the total leaf area. […]

Turning to spiroxamine [spiroxamine (II)], the “Efficacy in % of the untreated control” value stood at 0% in the experiment on Puccinia recondita (1.5 ppm in the spray liquor); 0% with Puccinia recondita (3 ppm in the spray liquor); 30% in the experiment on Puccinia recondita (12.5 ppm in the spray liquor); 0% in experiment [1] (1.5 ppm in the spray liquor); 20% in experiment [1] (3 ppm in the spray liquor).
